One data set deals with T1, Full-length human PKCθ (Homo sapiens, UniProt Q04759).
T1 construct: Full-length human PKCθ (Carna Biosciences, final 31 ng/mL); purchased Carna Biosciences
Description: Measurement of human PKCθ enzyme inhibition activity (HTRF KinEASE S1 kit). Type of data set: biochemical. Particulars: full-length human PKCθ, ATP 30 μM, HTRF; read-out: IC50 (nM), human PKCθ enzyme inhibition. The protocol:
Test Method 1: Measurement of Human PKCθ Enzyme Inhibition Activity
The test was carried out using a HTRF® KinEASE™ S1 kit (CIS bio). […] Then, 3 μL of an ATP liquid (final 30 μM) was dispensed therein to carry out an enzyme reaction at room temperature for 1 hour.
Ex represents Compound No. of Examples as described later.
For orientation: TR-FRET usually uses a lanthanide donor and a delayed reading to cut background.

The next data set addresses T2, Cytochrome P450 (CYP3A4) (Homo sapiens, UniProt P08684).
T2 construct: human liver microsome (0.1 mg protein/mL); from tissue; host or cells: human liver microsomes
Description: Measurement of cytochrome P450 (CYP3A4) enzyme inhibition activity in human liver microsome (inhibition tests I and II, midazolam substrate). The conditions noted are these: for I (%) Remaining Rate I: inhibition test I: 5 μM test compound, 2 μM midazolam, human liver microsome, 37° C. 20 minutes, no preincubation; for II (%) Remaining Rate II: inhibition test II: 5 μM test compound preincubated 30 minutes with human liver microsome and NADPH, then 2 μM midazolam 20 minutes, relative to test I. Type of data set: in vitro ADME. As for the experimental part:
Test Method 3: Measurement of Cytochrome P450 (CYP3A4) Enzyme Inhibition Activity i) Inhibition Test I (Calculation of Remaining Rate I)
Using a 96-well plate, 2 μM of a substrate (midazolam), 5 μM of a test compound, and human liver microsome (0.1 mg protein/mL) were incubated at 37° C. for 20 minutes in a total amount of 150 μL of a 100 mM phosphate buffer (pH 7.4) containing 0.1 mM EDTA and 1 mM NADPH. Then, the reaction was stopped by adding 130 μl of an aqueous solution containing 80% acetonitrile. Thereafter, the samples were analyzed by LC/MS/MS, and the remaining rates I were calculated using the following equation 1.
Remaining Rate I(%)=Ai,I/Ao,I×100 (Equation 1)
Ai, I=Amount of produced metabolite after reaction in the presence of the test compound in the inhibition test I Ao, I=Amount of produced metabolite after reaction in the absence of the test compound in the inhibition test I ii) Inhibition Test II (Calculation of Remaining Rate II)
Using a 96-well plate, 5 μM of a test compound and human liver microsome (0.1 mg protein/mL) were incubated at 37° C. for 30 minutes in a total amount of 145 μL of a 100 mM phosphate buffer (pH=7.4) containing 0.1 mM EDTA and 1 mM NADPH. Then, 2 μM of midazolam as the substrate was added thereto at a total amount of 150 μL of and incubated at 37° C. for 20 minutes. After the incubation, the reaction was stopped by adding 130 μL of an aqueous solution containing 80% acetonitrile. Thereafter, the samples were analyzed by LC/MS/MS, and the remaining rate II was calculated using the following equation 2.
Remaining Rate II(%)=Ai,II/Ao,II/(Ai,I/Ao,I)×100 (Equation 2)
Ai, II=Amount of produced metabolite after reaction in the presence of the test compound in the inhibition test II […]=Amount of produced metabolite after reaction in the absence of the test compound in the inhibition test II […]
Ex represents No. of the Example Compounds as described below.
In general terms: Liver microsomes are vesicles of endoplasmic reticulum, rich in cytochrome P450 enzymes.

By IC50 is commonly meant the midpoint of a concentration-inhibition curve.

Structures can show the parent of a compound that is named as a salt.

T1 sequence (Q04759 whole entry): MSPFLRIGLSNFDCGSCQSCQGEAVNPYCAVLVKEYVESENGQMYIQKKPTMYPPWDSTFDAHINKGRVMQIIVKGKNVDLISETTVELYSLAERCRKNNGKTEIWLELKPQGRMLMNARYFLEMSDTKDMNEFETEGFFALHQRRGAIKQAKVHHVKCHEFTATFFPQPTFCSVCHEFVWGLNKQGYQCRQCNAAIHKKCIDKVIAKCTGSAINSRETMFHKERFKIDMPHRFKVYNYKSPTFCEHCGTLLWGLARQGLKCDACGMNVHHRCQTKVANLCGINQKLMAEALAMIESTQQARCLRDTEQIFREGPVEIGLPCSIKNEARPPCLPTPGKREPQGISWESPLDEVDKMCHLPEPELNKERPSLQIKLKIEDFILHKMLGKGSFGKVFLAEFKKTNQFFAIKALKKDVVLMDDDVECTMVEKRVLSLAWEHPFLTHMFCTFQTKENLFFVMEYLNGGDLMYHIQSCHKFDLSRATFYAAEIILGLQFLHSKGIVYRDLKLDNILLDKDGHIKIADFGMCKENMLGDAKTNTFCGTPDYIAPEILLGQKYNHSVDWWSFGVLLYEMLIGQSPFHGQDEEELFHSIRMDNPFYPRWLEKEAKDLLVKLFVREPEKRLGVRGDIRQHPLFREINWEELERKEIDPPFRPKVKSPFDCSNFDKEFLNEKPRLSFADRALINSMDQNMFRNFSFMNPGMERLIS
T2 sequence (P08684 whole entry): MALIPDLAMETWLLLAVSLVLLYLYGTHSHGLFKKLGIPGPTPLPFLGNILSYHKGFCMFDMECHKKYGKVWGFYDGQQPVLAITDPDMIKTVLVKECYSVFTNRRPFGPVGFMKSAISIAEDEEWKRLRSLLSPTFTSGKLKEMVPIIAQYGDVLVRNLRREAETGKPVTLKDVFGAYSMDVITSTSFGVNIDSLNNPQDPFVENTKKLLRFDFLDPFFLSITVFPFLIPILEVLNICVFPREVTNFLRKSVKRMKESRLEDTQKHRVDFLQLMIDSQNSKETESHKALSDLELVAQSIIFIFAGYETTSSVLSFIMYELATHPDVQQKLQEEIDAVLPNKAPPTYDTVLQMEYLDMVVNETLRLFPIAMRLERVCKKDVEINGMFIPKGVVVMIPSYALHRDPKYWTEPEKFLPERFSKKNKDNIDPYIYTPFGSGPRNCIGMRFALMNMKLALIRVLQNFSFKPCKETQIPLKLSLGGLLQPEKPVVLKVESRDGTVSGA

Regarding `N#Cc1cnc(NCc2ccccc2Cl)nc1NC[C@]12CC3C[C@H](C1)[C@@H](NCCCO)[C@@H](C3)C2` (relative stereo) [Example 28], the half-maximal inhibitory concentration (IC50) on Full-length human PKCθ amounted to 1.3 nM.
With `N#Cc1cnc(NCc2ccccc2Cl)nc1NC[C@]12CC3C[C@H](C1)[C@@H](N[C@H]1CC[C@H](O)CC1)[C@@H](C3)C2` (relative stereo) [Example 60], the IC50 at Full-length human PKCθ is 1.1 nM.
Take `CN(C)[C@@H]1[C@@H]2CC3C[C@H]1C[C@@](CNc1nc(NCc4ccccc4OC(F)(F)F)ncc1C#N)(C3)C2` (relative stereo) [Example 70]: on Full-length human PKCθ, the half-inhibitory concentration (IC50) stood at 1.9 nM.
For `N#Cc1cnc(NCc2ccccc2OC(F)(F)F)nc1NC[C@]12CC3C[C@H](C1)[C@@H](NC1CCOCC1)[C@@H](C3)C2` (relative stereo) [Example 74], at Full-length human PKCθ, the IC50 was determined as 0.65 nM.
Consider `N#Cc1cnc(NCc2ccccc2OC(F)(F)F)nc1NC[C@]12CC3C[C@H](C1)[C@@H](NCc1cccnc1)[C@@H](C3)C2` (relative stereo) [Example 76], for which the IC50 on Full-length human PKCθ was 2.3 nM.
For `N#Cc1cnc(NCc2cccc(Cl)c2Cl)nc1NC[C@]12CC3C[C@H](C1)[C@@H](N)[C@@H](C3)C2` (relative stereo) [Example 140], on Full-length human PKCθ, the IC50 stood at 2.5 nM.
For `COc1ccc(Cl)c(CNc2ncc(C#N)c(NC[C@]34CC5C[C@H](C3)[C@@H](N)[C@@H](C5)C4)n2)c1` (relative stereo) [Example 150], the IC50 at Full-length human PKCθ turned out to be 5.3 nM.
The same measure, in the same setting: the result for `N[C@@H]1[C@@H]2CC3C[C@H]1C[C@@](CNc1nc(NCc4ccccc4OC(F)(F)F)ncc1C(F)(F)F)(C3)C2` (relative stereo) [Example 178] reads 7.6 nM; that for `COc1ccccc1CNc1ncc(C#N)c(NC[C@]23CC4C[C@H](C2)[C@@H](NCC(CO)CO)[C@@H](C4)C3)n1` (relative stereo) [Example 194], 6.5 nM.
Same read-out and setting: the result for `N#Cc1cnc(NCc2ccccc2Cl)nc1NC[C@]12CC3C[C@H](C1)[C@@H](NCC(=O)N1CCC(O)CC1)[C@@H](C3)C2` (relative stereo) [Example 204] reads 11 nM.
For the compound `N#Cc1cnc(NCc2ccccc2Cl)nc1NC[C@]12CC3C[C@H](C1)[C@@H](NCCN1CCC(O)CC1)[C@@H](C3)C2` (relative stereo) [Example 208], the IC50 on Full-length human PKCθ was found to be 1.6 nM.
Still for that read-out and setting: the result for `N#Cc1cnc(NCc2ccccc2OC(F)(F)F)nc1NC[C@]12CC3C[C@H](C1)[C@@H](NC1CCC(N4CCC[C@H]4CO)CC1)[C@@H](C3)C2` (relative stereo) [Example 240] reads 0.064 nM.
The same measure, in the same setting: in the case of `CC(C)N1CCC(N[C@@H]2[C@@H]3CC4C[C@H]2C[C@@](CNc2nc(NCc5ccccc5OC(F)(F)F)ncc2C#N)(C4)C3)CC1` (relative stereo) [Example 246] it was 0.31 nM; in that of `CSc1ccccc1CNc1ncc(C#N)c(NC[C@]23CC4C[C@H](C2)[C@@H](NC[C@H]2CC[C@@H](O)CC2)[C@@H](C4)C3)n1` (relative stereo) [Example 264], 1.9 nM; in that of `N#Cc1cnc(NCc2ccccc2OC(F)(F)F)nc1NC[C@]12CC3C[C@H](C1)[C@@H](N[C@H]1CC[C@@H](NC4CCOCC4)CC1)[C@@H](C3)C2` (relative stereo) [Example 284], 0.28 nM.
The same measure, in the same setting: in the case of `N#Cc1cnc(NCCc2cccc(Cl)c2)nc1NC[C@]12CC3C[C@H](C1)[C@@H](N)[C@@H](C3)C2` (relative stereo) [Example 292] it was 10 nM; in that of `CC(Nc1ncc(C#N)c(NC[C@]23CC4C[C@H](C2)[C@@H](N)[C@@H](C4)C3)n1)c1ccccc1Cl` (relative stereo) [Example 302], 14 nM.
As for `N#Cc1cnc(NCc2ccccc2Cl)nc1NC[C@]12CC3C[C@H](C1)C(N1CCC(N)CC1)[C@@H](C3)C2` (relative stereo) [Example 318], at Full-length human PKCθ, the half-maximal inhibitory concentration (IC50) was determined as 0.86 nM.
Still for that read-out and setting: the result for `N#Cc1cnc(NCc2ccccc2Cl)nc1NC[C@]12CC3C[C@H](C1)[C@@H](NC[C@H]1CC[C@H](CO)CC1)[C@@H](C3)C2` (relative stereo) [Example 341] reads 1.7 nM; that for `CSc1ncccc1CNc1ncc(C#N)c(NC[C@]23CC4C[C@H](C2)[C@@H](NC[C@H]2CC[C@H](CO)CC2)[C@@H](C4)C3)n1` (relative stereo) [Example 342], 0.48 nM.
Turning to `N#Cc1cnc(NCc2ccccc2OC(F)F)nc1NC[C@]12CC3C[C@H](C1)[C@@H](NC[C@H]1CC[C@H](O)CC1)[C@@H](C3)C2` (relative stereo) [Example 348], the IC50 on Full-length human PKCθ is 0.41 nM.
The same measure, in the same setting: the result for `N#Cc1cnc(NCc2ccccc2Cl)nc1NC[C@]12CC3C[C@H](C1)[C@@H](NCC1CCN(CC(F)F)CC1)[C@@H](C3)C2` (relative stereo) [Example 357] reads 1.2 nM; that for `C[C@]1(O)CC[C@H](CN[C@@H]2[C@@H]3CC4C[C@H]2C[C@@](CNc2nc(NCc5ccccc5OC(F)(F)F)ncc2C#N)(C4)C3)CC1` (relative stereo) [Example 363], 0.58 nM; that for `C[C@]1(O)CC[C@@H](CN[C@@H]2[C@@H]3CC4C[C@H]2C[C@@](CNc2nc(NCc5ccccc5OC(F)F)ncc2C#N)(C4)C3)CC1` (relative stereo) [Example 371], 0.7 nM.
On the same count and under the same terms, the result for `N#Cc1cnc(NCc2ccccc2Cl)nc1NC[C@]12CC3C[C@H](C1)[C@@H](NC1CCNCC1F)[C@@H](C3)C2` (relative stereo) [Example 383] reads 1.6 nM; that for `N[C@@H]1[C@@H]2CC3C[C@H]1C[C@@](CNc1nc(NCc4ccccc4OC(F)(F)F)ncc1[N+](=O)[O-])(C3)C2` (relative stereo) [Example 388], 3.3 nM; that for `N[C@@H]1[C@@H]2CC3C[C@H]1C[C@@](CNc1nc(NCc4ccccc4OC(F)(F)F)ncc1F)(C3)C2` (relative stereo) [Example 390], 2.1 nM.
Still for that read-out and setting: the result for `N#Cc1cnc(NCc2ccccc2OC(F)(F)F)nc1NC[C@]12CC3C[C@H](C1)[C@@H](N1CCC(O)C1)[C@@H](C3)C2` (stereo partly shown) [Example 11] reads 1 nM.
As to `N#Cc1cnc(NCc2ccccc2OC(F)(F)F)nc1NCC1CN2CCC1CC2` (stereo not shown) [Example 48], at Full-length human PKCθ, the 50% inhibitory concentration (IC50) was 54 nM.
Still for that read-out and setting: in the case of `N#Cc1cnc(NCc2ccccc2OC(F)(F)F)nc1NC[C@]12CC3C[C@H](C1)C[C@@](CN)(C3)C2` [Example 57] it was 15 nM; in that of `N#Cc1cnc(NCc2ccccc2OC(F)(F)F)nc1NC[C@H]1C[C@H](N)C1` [Example 125], 89 nM; in that of `N#Cc1cnc(NCc2ccccc2OC(F)(F)F)nc1NC[C@@H]1CC[C@@H](N)C1` [Example 126], 100 nM.
Still for that read-out and setting: in the case of `COc1ccc(CO)cc1CNc1ncc(C#N)c(NC[C@]23CC4C[C@H](C2)[C@@H](N)[C@@H](C4)C3)n1` [Example 139] it was 13 nM.
On the same count and under the same terms, the result for `N#Cc1cnc(NCCc2ccc(O)cc2)nc1NC[C@]12CC3C[C@H](C1)[C@@H](N)[C@@H](C3)C2` [Example 145] reads 1.6 nM; that for `N#Cc1cnc(NCc2ccccc2OC(F)(F)F)nc1NCCC(=O)N1CCNCC1` [Example 156], 67 nM; that for `N#Cc1cnc(NCc2cccnc2Cl)nc1NC[C@]12CC3C[C@H](C1)[C@@H](N)[C@@H](C3)C2` [Example 165], 2.3 nM.
For the compound `N#Cc1cnc(NCc2ccccc2OC(F)(F)F)nc1NCC1CC2CCC(C1)N2` (stereo not shown) [Example 170, 4-[(8-azabicyclo[3.2.1]oct-3-ylmethyl)amino]-2-{[2-(trifluoromethoxy)benzyl]amino}pyrimidine-5-carbonitrile dihydrochloride], at Full-length human PKCθ, the half-maximal inhibitory concentration (IC50) came to 110 nM.
Regarding `N#Cc1cnc(NCc2ccccc2OC(F)(F)F)nc1NCC1[C@@H]2CC3C[C@H]1C[C@@](CN)(C3)C2` (stereo partly shown) [Example 183], the IC50 on Full-length human PKCθ came to 29 nM.
Turning to `N#Cc1cnc(Nc2cccc(Br)c2)nc1NC[C@]12CC3C[C@H](C1)[C@@H](N)[C@@H](C3)C2` [Example 187], the IC50 on Full-length human PKCθ worked out at 3.8 nM.
As to `CSc1ccccc1CNc1ncc(C#N)c(NC[C@]23CC4C[C@H](C2)[C@@H](NC[C@H]2CC[C@H](O)CC2)[C@@H](C4)C3)n1` [Example 263], on Cytochrome P450 (CYP3A4), the “I (%) Remaining Rate I” value is 91% and the “II (%) Remaining Rate II” value is given as 87%.
For the compound `CNC1CCC(N[C@@H]2[C@@H]3CC4C[C@H]2C[C@@](CNc2nc(NCc5ccccc5Cl)ncc2C#N)(C4)C3)CC1` (stereo partly shown) [Example 315], on Cytochrome P450 (CYP3A4), the “I (%) Remaining Rate I” value amounted to 85% and the “II (%) Remaining Rate II” value is 86%.
